Here are results for 2 compounds from US12180252B2, “Peptide derived from PEP27 peptide and uses thereof” (priority 2021, dated 2024).

In data set [1] the test system is HaCaT cells. Put plainly: Cell absorption of peptide (fluorescence imaging). It counts as cell-based, human. Particulars: 5 μM, 1 hour. As for the experimental part: With regard to the synthetic peptide prepared by the method of above 1, an ability of penetrating cells was determined through a phase-contrast microscope. Specifically, human keratinocyte line (HaCaT cells) was dispensed on a 6-well plate provided with a polylysine coating cover slip (SPL Life Sciences, Gyeonggi-do, Korea) at 2×10^5 cells/well and cultured for 24 hours, and then treated with fluorescein isothiocyanate (FITC)-labeled PEP27-2 (FITC-PEP27-2) at a concentration of 5 μM, followed by incubation in a 5% CO2 incubator for 1 hour. After 1 hour, a nucleus of the cell was treated and stained with Hoechst 33342 nucleic acid dye solution (Invitrogen, Carlsbad, CA, USA; 8 μM) for 10 minutes. After washing the stained product with PBS three times, fluorescence in the cells was imaged using a phase-contrast microscope (EVOS™ FL Auto 2 Imaging System, Thermo Fisher Scientific).

Data set [2] relates to plasmid DNA (pRSETB). Put plainly: Peptide-DNA binding by agarose gel electrophoresis. Particulars: peptide/DNA ratios 0.25:1 to 4:1, 300 ng plasmid DNA. As to the method:
Specifically, 300 ng of plasmid DNA (pRSETB) was reacted with the peptide by a relative ratio (reactions were performed at peptide/DNA ratios of DNA alone, 0.25:1, 0.5:1, 1:1, 1.5:1, 2:1, 3:1, 4:1, respectively) at 37° C. for 10 minutes, followed by conducting electrophoresis on a 1% agarose gel, staining the same with ethidium bromide (EtBr) and monitoring through UV.

The test system of data set [3] is E. coli. Put plainly: Flow cytometry, propidium iodide staining. In kind it is cell-based, Escherichia coli. As for the experimental part:
In order to confirm whether the peptide prepared by the method of above 1 acts on the bacterial membrane, PEP27-2 peptide having better antimicrobial activity than the parental peptide was analyzed through flow cytometry.
Thereafter, the supernatant was removed using a centrifuge (10,000 rpm) and stained with propidium iodide (PI) at a concentration of 10 μg/ml at 4° C. for 30 minutes. Then, the unbound propidium iodide (PI) was removed using the centrifuge, and 1 ml of physiological saline (PBS) was added to remove agglomeration of the cells. Thereafter, effects of the peptide on the bacterial membrane were determined using a Bechman flow cytometer.
For orientation: In flow cytometry, cells or beads pass a laser one at a time.

Data set [4] is described as follows: Calcein release from LUVs. The following applies: peptide-to-lipid (P/L) ratio 0.2; PE/PG and PC/CH/SM liposomes; 100% = 0.1% Triton X-100. As for the experimental part: To examine the mechanism of action of PEP27 and PEP27-2, we evaluated the changes in bacterial cell membrane permeability by monitoring the release of calcein, a fluorescent marker, from calcein entrapped LUVs with different lipid bilayer compositions.
Peptide-induced membrane permeabilization was quantified by monitoring calcein release from LUVs (n=3 per condition). Different calcein-entrapped LUVs [PE/PG (7/3) or PC/CH/SM (1/1/1)] were prepared as described above, except that the dry lipid films were resuspended in 1 mL of PBS (pH 7.2) containing 70 mM calcein. Gel filtration chromatography on a Sephadex G-50 column was performed to separate free calcein from that entrapped in LUVs. Thereafter, the LUVs with entrapped calcein were mixed with peptides at various ratios, and the fluorescence of the released calcein was measured with a SpectraMax M3 Multi-Mode Microplate Reader (Molecular Devices, Sunnyvale, CA, USA) at excitation and emission wavelengths of 480 and 520 nm, respectively.

Data set [5] in a line: MTT cytotoxicity. It counts as cell-based, human. Particulars: human; 100 μM, 24 h, MTT, HaCaT and MCF-7 cells; read-out: cell viability. As for the experimental part:
Specifically, Thiazolyl blue tetrazolium bromide (MTT, Merck KGaA) was used to determine the cytotoxicity of PEP27 and its analogs against HaCaT (human keratinocyte […], n=4 per condition) and MCF-7 (human breast adenocarcinoma, n=3 per condition) cells. The cells were cultured in Dulbecco's modified Eagle's medium (DMEM) supplemented with 10 heat-inactivated fetal bovine serum (FBS, Gibco, Grand Island, NY, USA) and 1% penicillin-streptomycin (Gibco) at a density of 2×10^4 cells/well (96-well plate). Peptides were then added at various concentrations and incubated for 24 h at 37° C., after which MTT (final concentration, 0.5 mg/mL) was added to each well and incubated for 4 h. The formazan product was solubilized in DMSO, and the absorbance at 570 nm was measured to […] cytotoxicity. Cells treated with 0.1% Triton X-100 were used as the 100% cytotoxic control sample.

Data set [6] deals with red blood cells of a rat (Balb/c). Particulars: 37° C., 1 hour. As for the experimental part:
In order to compare the cytotoxicity of the peptides prepared by the method of above 1, erythrocyte hemolytic activity of each of the synthesized peptides was measured.
Specifically, red blood cells of a rat (Balb/c, 6 weeks old, female) were diluted with PBS (pH 7.0) to a concentration of 8%, and PEP27, PEP27-1, PEP27-2 and PEP27-5 peptides were used for treatment of the cells at concentrations of 3.13, 6.25, 12.5, 25.01 50.0 and 100.0 μM/well, respectively, followed by reaction at 37° C. for 1 hour. Then, an amount of hemoglobin contained in the supernatant obtained by centrifugation at 1,000×g was determined by measuring the absorbance at a wavelength of 414 nm. As a control which is a standard for the degree of cell destruction, the absorbance of the obtained supernatant was measured after treatment using 1% Triton X-100 (Sigma, USA) and reaction at 37° C. for 1 hour. With reference to 100% erythrocytes hemolysis activity, hemolysis of each peptide was calculated from the measured absorbance using Equation 1 below. Erythrocyte destruction ability (%)=(Absorbance A−Absorbance B)/(Absorbance C−Absorbance B)×100 [Equation 1]
(wherein, absorbance A represents the absorbance of a reaction solution treated with each peptide measured at a wavelength of 414 nm; absorbance B represents the absorbance of a reaction solution treated with PBS measured at a wavelength of 414 nm; and absorbance C represents the absorbance of a reaction solution treated with 1% Triton X-100 measured at a wavelength of 414 nm).

Read-outs that look alike come from different tables or passages of the source. Where a SMILES comes first, the peptide text is derived from it.

As to GRKKRRQRRRPQ (TAT), the “cellular absorption into HaCaT cells” value in data set [1] was “absorbed into the cytoplasm and the nucleus of HaCaT cell”.

As usually defined, the viability is a read-out of living cells in per cent, often relative to untreated cells. With `CSCC[C@H](N)C(=O)N[C@@H](CCCNC(=N)N)C(=O)N[C@@H](CCCCN)C(=O)N[C@@H](CCC(=O)O)C(=O)N[C@@H](Cc1ccccc1)C(=O)N[C@@H](Cc1c[nH]cn1)C(=O)N[C@@H](CC(N)=O)C(=O)N[C@H](C(=O)N[C@@H](CC(C)C)C(=O)N[C@@H](CO)C(=O)N[C@@H](CO)C(=O)NCC(=O)N[C@@H](CCC(N)=O)C(=O)N[C@@H](CC(C)C)C(=O)N[C@@H](CC(C)C)C(=O)N[C@@H](C)C(=O)N[C@@H](CC(=O)O)C(=O)N[C@@H](CCCCN)C(=O)N[C@@H](CCCNC(=N)N)C(=O)N1CCC[C@H]1C(=O)N[C@@H](C)C(=O)N[C@@H](CCCNC(=N)N)C(=O)N[C@@H](CC(=O)O)C(=O)N[C@@H](Cc1ccc(O)cc1)C(=O)N[C@@H](CC(N)=O)C(=O)N[C@@H](CCCNC(=N)N)C(=O)N[C@@H](CCCCN)C(N)=O)C(C)C` [PEP27] (H-MRKEFHNVLSSGQLLADKRPARDYNRK-NH2; N-terminus assumed), the “binding to DNA (gel electrophoresis)” value in data set [2] was “bound to DNA”. The “bacterial membrane destruction” value in data set [3] (E. coli, flow cytometry) is on record as “without destruction of the E. coli membrane”. Further, the “PI-positive E. coli cells (membrane destruction ability)” value in data set [3] (at MIC, 37° C., 1 hour) is 19.9%. Moreover, the calcein leakage in data set [4] is recorded as 12%. In addition, the viability at 24 h, 100 µM in data set [5] amounted to 100%. The Erythrocyte destruction ability in data set [6] (Peptide concentration 3.13 μM) was found to be 0%; in data set [6] (Peptide concentration 6.25 μM), 1.26%; in data set [6] (Peptide concentration 12.5 μM) it was 1.79%; in data set [6] (Peptide concentration 25 μM), 2.76%; in data set [6] (Peptide concentration 50 μM), 3.64%; in data set [6] (Peptide concentration 100 μM, 100% = 1% Triton X-100) it was 3.58%.
